biological target: T1, PARP1 (Homo sapiens, UniProt P09874); assay: PARP1 Biochemical Assay (BPS Bioscience kit, chemiluminescence); details: histone-coated plate, biotinilated NAD+, 25° C. for 60 min, luminescence, read-out: PARP 1 inhibition IC50
T1 construct: purchased BPS Bioscience
Procedure: The assay was performed using BPS Bioscience kit. The 96-well strip plate was coated with 50 μl of histone mixture and incubated at 4° C. overnight. Next day the wells were blocked by adding 100 μl of blocking buffer. The plate was washed and 25 μl of appropriate concentration of PARP1 (25-75 ng/well) was added in all the Test and Positive control wells. In Negative control wells enzyme was replaced with 25 μl of water. To it 5 μl each of 10×PARP assay buffer and activated DNA was added in all the wells (Test, Positive and Negative control wells). 10× concentration of test compounds were prepared and 5 μl test compounds were added respective wells. Reaction volume was made up to 45 μl by adding water to all the wells. Finally, 5 μl of 10×PARP assay mixture containing biotinilated NAD^+ was added in each well and the plate was incubated at ambient temperature (25° C.) for 60 min. After washing the plate 50 μl of Streptavidin-HRP was added in each well and incubated the plate at RT for 30 min. The plate was washed and the luminescence was read in PHERAStar plate reader after adding 100 μl of chemiluminescent substrate.
PARP inhibition was calculated using the following formula: % PARP inhibition=100−[(RLU test compound treated sample−RLU negative control)/(RLU Positive control−RLU negative control)×100]
IC50 values were calculated by plotting % inhibition against the respective concentrations of test compounds using GraphPad Prism 5.

T1 sequence (P09874 whole entry): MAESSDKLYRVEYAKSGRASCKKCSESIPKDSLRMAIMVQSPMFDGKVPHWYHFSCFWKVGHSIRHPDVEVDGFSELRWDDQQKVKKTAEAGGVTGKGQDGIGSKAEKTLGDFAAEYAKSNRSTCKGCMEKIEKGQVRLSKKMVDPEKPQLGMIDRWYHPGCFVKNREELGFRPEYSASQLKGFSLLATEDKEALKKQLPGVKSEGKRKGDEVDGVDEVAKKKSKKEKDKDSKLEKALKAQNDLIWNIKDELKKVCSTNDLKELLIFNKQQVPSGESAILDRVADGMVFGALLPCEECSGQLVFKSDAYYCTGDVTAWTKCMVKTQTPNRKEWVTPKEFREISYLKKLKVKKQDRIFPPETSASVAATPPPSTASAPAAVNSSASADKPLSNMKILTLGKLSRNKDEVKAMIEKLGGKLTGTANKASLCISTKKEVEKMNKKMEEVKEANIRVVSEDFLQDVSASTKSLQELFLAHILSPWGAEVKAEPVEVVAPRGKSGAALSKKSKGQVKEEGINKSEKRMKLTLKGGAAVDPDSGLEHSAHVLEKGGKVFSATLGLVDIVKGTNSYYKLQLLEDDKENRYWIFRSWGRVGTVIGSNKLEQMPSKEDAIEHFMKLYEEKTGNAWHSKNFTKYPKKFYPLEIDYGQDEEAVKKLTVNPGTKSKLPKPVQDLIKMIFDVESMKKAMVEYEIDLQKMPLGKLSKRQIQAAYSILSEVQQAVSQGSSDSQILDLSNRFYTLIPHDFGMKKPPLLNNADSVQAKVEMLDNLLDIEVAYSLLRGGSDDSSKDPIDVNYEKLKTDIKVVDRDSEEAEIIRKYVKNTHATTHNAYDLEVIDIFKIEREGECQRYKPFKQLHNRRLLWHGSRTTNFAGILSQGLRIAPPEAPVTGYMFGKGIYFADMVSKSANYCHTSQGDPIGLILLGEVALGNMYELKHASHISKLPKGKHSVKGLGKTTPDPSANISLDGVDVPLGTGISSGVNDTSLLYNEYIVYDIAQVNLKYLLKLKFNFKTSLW

| Compound | IC50 |
| --- | --- |
| CC1(C)CN(c2ccc(F)cc2)CCN1[C@H]1C=C(c2nc3c(c(=O)[nH]2)CC2(CC3)CC2)CC1 [Compound 67, (R)-2′-(3-(4-(4-fluorophenyl)-2,2-dimethylpiperazin-1-yl)cyclopent-1-en-1-yl)-7′,8′-dihydro-3′H-spiro[cyclopropane-1,6′-quinazolin]-4′(5′H)-one] | 5000 to 500000 nM |
| CNC(=O)c1cnc(N2CCN([C@H]3C=C(c4nc5c(c(=O)[nH]4)CC4(CC5)CC4)CC3)CC2)c(Cl)c1 [Compound 103, (R)-5-chloro-N-methyl-6-(4-(3-(4′-oxo-4′,5′,7′,8′-tetrahydro-3′H-spiro[cyclopropane-1,6′-quinazolin]-2′-yl)cyclopent-2-en-1-yl)piperazin-1-yl)nicotinamide] | 1 to 500 nM |
| O=c1[nH]c(CCCN2CCN(c3cccc(C(F)(F)F)c3)CC2)nc2c1CC1(CC2)CC1 [Compound 22, 2′-(3-(4-(3-(trifluoromethyl)phenyl)piperazin-1-yl)propyl)-7′,8′-dihydro-3′H-spiro[cyclopropane-1,6′-quinazolin]-4′(5′H)-one] | 5000 to 500000 nM |
| O=c1[nH]c(C2=C[C@H](N3CCN(c4c(F)cccc4Cl)CC3)CC2)nc2c1CC1(CC2)CC1 [Compound 139, (R)-2′-(3-(4-(2-chloro-6-fluorophenyl)piperazin-1-yl)cyclopent-1-en-1-yl)-7′,8′-dihydro-3′H-spiro[cyclopropane-1,6′-quinazolin]-4′(5′H)-one] | 5000 to 500000 nM |
| O=c1[nH]c(CCCN2C3CCC2CN(c2ccc(F)cc2)C3)nc2c1CC1(CC2)CC1 [Compound 7, 2′-(3-(3-(4-fluorophenyl)-3,8-diazabicyclo[3.2.1]octan-8-yl)propyl)-7′,8′-dihydro-3′H-spiro[cyclopropane-1,6′-quinazolin]-4′(5′H)-one] | 1 to 500 nM |
| O=c1[nH]c(C2=C[C@H](N3CCN(c4ccc(Cl)c(F)c4)CC3)CC2)nc2c1CC1(CC2)CC1 [Compound 86, (R)-2′-(3-(4-(4-chloro-3-fluorophenyl)piperazin-1-yl)cyclopent-1-en-1-yl)-7′,8′-dihydro-3′H-spiro[cyclopropane-1,6′-quinazolin]-4′(5′H)-one] | 1 to 500 nM |
| Cc1cccnc1N1CCN([C@H]2C=C(c3nc4c(c(=O)[nH]3)CC3(CC4)CC3)CC2)CC1 [Compound 132, (R)-2′-(3-(4-(3-methylpyridin-2-yl)piperazin-1-yl)cyclopent-1-en-1-yl)-7′,8′-dihydro-3′H-spiro[cyclopropane-1,6′-quinazolin]-4′(5′H)-one] | 1 to 500 nM |
| O=c1[nH]c(C2=C[C@H](N3CCN(c4ccccc4)CC3)CC2)nc2c1CC1(CC2)CC1 [Compound 117, (R)-2′-(3-(4-phenylpiperazin-1-yl)cyclopent-1-en-1-yl)-7′,8′-dihydro-3′H-spiro[cyclopropane-1,6′-quinazolin]-4′(5′H)-one] | 1 to 500 nM |
| O=c1[nH]c([C@@H]2CC[C@@H](N3CCN(c4ccc(F)cc4)CC3)C2)nc2c1CC1(CC2)CC1 [Compound 152, 2′-((1R,3R)-3-(4-(4-fluorophenyl)piperazin-1-yl)cyclopentyl)-7′,8′-dihydro-3′H-spiro[cyclopropane-1,6′-quinazolin]-4′(5′H)-one] | 501 to 5000 nM |
| O=c1[nH]c(CCCN2CCN(c3ccc(F)cc3)CC2)nc2c1CCCC21CC1 [Compound 1, 2′-(3-(4-(4-fluorophenyl)piperazin-1-yl)propyl)-6′,7′-dihydro-3′H-spiro[cyclopropane-1,8′-quinazolin]-4′(5′H)-one] | 1 to 500 nM |
| O=c1[nH]c([C@@H]2CC[C@H](N3CCN(c4cccc(F)c4)CC3)C2)nc2c1CC1(CC2)CC1 [Compound 153, 2′-((1R,3S)-3-(4-(3-fluorophenyl)piperazin-1-yl)cyclopentyl)-7′,8′-dihydro-3′H-spiro[cyclopropane-1,6′-quinazolin]-4′(5′H)-one] | 5000 to 500000 nM |
| Cc1cccc(N2CCN(CCCc3nc4c(c(=O)[nH]3)CC3(CC4)CC3)CC2)c1 [Compound 23, 2′-(3-(4-(m-tolyl)piperazin-1-yl)propyl)-7′,8′-dihydro-3′H-spiro[cyclopropane-1,6′-quinazolin]-4′(5′H)-one] | 5000 to 500000 nM |
| O=c1[nH]c(CCCN2CC3CC2CN3c2ccc(F)cc2)nc2c1CC1(CC2)CC1 (stereo not drawn) [Compound 11, 2′-(3-(5-(4-fluorophenyl)-2,5-diazabicyclo[2.2.1]heptan-2-yl)propyl)-7′,8′-dihydro-3′H-spiro[cyclopropane-1,6′-quinazolin]-4′(5′H)-one] | 501 to 5000 nM |
| N#Cc1ccc(N2CCN([C@H]3C=C(c4nc5c(c(=O)[nH]4)CC4(CC5)CC4)CC3)CC2)cc1F [Compound 127, (R)-2-fluoro-4-(4-(3-(4′-oxo-4′,5′,7′,8′-tetrahydro-3′H-spiro[cyclopropane-1,6′-quinazolin]-2′-yl)cyclopent-2-en-1-yl)piperazin-1-yl)benzonitrile] | 1 to 500 nM |
| Cc1ccc(N2CCN([C@H]3C=C(c4nc5c(c(=O)[nH]4)CC4(CC5)CC4)CC3)CC2)c(F)c1 [Compound 88, (R)-2′-(3-(4-(2-fluoro-4-methylphenyl)piperazin-1-yl)cyclopent-1-en-1-yl)-7′,8′-dihydro-3′H-spiro[cyclopropane-1,6′-quinazolin]-4′(5′H)-one] | 1 to 500 nM |
| CNC(=O)c1ccc(N2CCN([C@H]3C=C(c4nc5c(c(=O)[nH]4)CC4(CC5)CC4)CC3)CC2)nc1 [Compound 76, (R)—N-methyl-6-(4-(3-(4′-oxo-4′,5′,7′,8′-tetrahydro-3′H-spiro[cyclopropane-1,6′-quinazolin]-2′-yl)cyclopent-2-en-1-yl)piperazin-1-yl)nicotinamide] | 1 to 500 nM |
| O=c1[nH]c([C@@H]2CC[C@H](N3CCN(c4ccc(F)cc4)CC3)C2)nc2c1CC1(CC2)CC1 [Compound 150, 2′-((1R,3S)-3-(4-(4-fluorophenyl)piperazin-1-yl)cyclopentyl)-7′,8′-dihydro-3′H-spiro[cyclopropane-1,6′-quinazolin]-4′(5′H)-one] | 1 to 500 nM |
| Cc1c(Cl)cccc1N1CCN([C@H]2C=C(c3nc4c(c(=O)[nH]3)CC3(CC4)CC3)CC2)CC1 [Compound 143, (R)-2′-(3-(4-(3-chloro-2-methylphenyl)piperazin-1-yl)cyclopent-1-en-1-yl)-7′,8′-dihydro-3′H-spiro[cyclopropane-1,6′-quinazolin]-4′(5′H)-one] | 1 to 500 nM |
| O=c1[nH]c(CCCN2CCN(c3ccc(F)cc3)CC2)nc2c1CC1(CC2)CC1 [Compound 5, 2′-(3-(4-(4-fluorophenyl)piperazin-1-yl)propyl)-7′,8′-dihydro-3′H-spiro[cyclopropane-1,6′-quinazolin]-4′(5′H)-one] | 1 to 500 nM |
| CC1CN(c2ccc(F)cc2)CC(C)N1CCCc1nc2c(c(=O)[nH]1)CC1(CC2)CC1 (stereo not drawn) [Compound 26, 2′-(3-(4-(4-fluorophenyl)-2,6-dimethylpiperazin-1-yl)propyl)-7′,8′-dihydro-3′H-spiro[cyclopropane-1,6′-quinazolin]-4′(5′H)-one] | 5000 to 500000 nM |
| CNC(=O)c1cccc(N2CCN([C@H]3C=C(c4nc5c(c(=O)[nH]4)CC4(CC5)CC4)CC3)CC2)c1 [Compound 87, (R)—N-methyl-3-(4-(3-(4′-oxo-4′,5′,7′,8′-tetrahydro-3′H-spiro[cyclopropane-1,6′-quinazolin]-2′-yl)cyclopent-2-en-1-yl)piperazin-1-yl)benzamide] | 1 to 500 nM |
| O=c1[nH]c(C2=C[C@H](N3CCN(c4ccc(-c5ccsc5)cc4)CC3)CC2)nc2c1CC1(CC2)CC1 [Compound 148, (R)-2′-(3-(4-(4-(thiophen-3-yl)phenyl)piperazin-1-yl)cyclopent-1-en-1-yl)-7′,8′-dihydro-3′H-spiro[cyclopropane-1,6′-quinazolin]-4′(5′H)-one] | 501 to 5000 nM |
| Cc1ccc(C2CCN([C@H]3C=C(c4nc5c(c(=O)[nH]4)CC4(CC5)CC4)CC3)CC2)cc1 [Compound 77, (R)-2′-(3-(4-(p-tolyl)piperidin-1-yl)cyclopent-1-en-1-yl)-7′,8′-dihydro-3′H-spiro[cyclopropane-1,6′-quinazolin]-4′(5′H)-one] | 1 to 500 nM |
| O=c1[nH]c(C2=C[C@H](N3CCN(c4ccc(Cl)cn4)CC3)CC2)nc2c1CC1(CC2)CC1 [Compound 57, (R)-2′-(3-(4-(5-chloropyridin-2-yl)piperazin-1-yl)cyclopent-1-en-1-yl)-7′,8′-dihydro-3′H-spiro[cyclopropane-1,6′-quinazolin]-4′(5′H)-one] | 1 to 500 nM |
| CC(C)(CCc1nc2c(c(=O)[nH]1)CC1(CC2)CC1)N1CCN(c2ccc(F)cc2)CC1 [Compound 30, 2′-(3-(4-(4-fluorophenyl)piperazin-1-yl)-3-methylbutyl)-7′,8′-dihydro-3′H-spiro[cyclopropane-1,6′-quinazolin]-4′(5′H)-one] | 1 to 500 nM |
| CNC(=O)c1ccc(N2CCN([C@H]3C=C(c4nc5c(c(=O)[nH]4)CC4(CC5)CC4)CC3)CC2)cc1F [Compound 89, (R)-2-fluoro-N-methyl-4-(4-(3-(4′-oxo-4′,5′,7′,8′-tetrahydro-3′H-spiro[cyclopropane-1,6′-quinazolin]-2′-yl)cyclopent-2-en-1-yl)piperazin-1-yl)benzamide] | 1 to 500 nM |
| N#Cc1ccc(N2CCN([C@H]3C=C(c4nc5c(c(=O)[nH]4)CC4(CC5)CC4)CC3)CC2)c(F)c1 [Compound 111, (R)-3-fluoro-4-(4-(3-(4′-oxo-4′,5′,7′,8′-tetrahydro-3′H-spiro[cyclopropane-1,6′-quinazolin]-2′-yl)cyclopent-2-en-1-yl)piperazin-1-yl)benzonitrile] | 1 to 500 nM |
